Measurements taken from a compilation of properties of binary mixtures (doi:10.1016/s1004-9541(08)60072-5).

Test: xn = mol fraction of the nth substance listed
Conditions: 101 kPa

CN(C)C=O + CCCC[n+]1ccn(C)c1.F[P-](F)(F)(F)(F)F
x1 = 1
Conditions | viscosity [mPa·s]
293.15 K | 0.91
298.15 K | 0.87
308.15 K | 0.78
313.15 K | 0.75
318.15 K | 0.72

CCCC[n+]1ccn(C)c1.F[P-](F)(F)(F)(F)F + CN(C)C=O
viscosity [mPa·s]
Conditions | x2 = 0 | x2 = 0.1002 | x2 = 0.2 | x2 = 0.3002 | x2 = 0.3999 | x2 = 0.5 | x2 = 0.6 | x2 = 0.7 | x2 = 0.7999 | x2 = 0.8999
293.15 K | 265 | 151.1 | 94.6 | 59.6 | – | 23.41 | 12.37 | 6.86 | 3.71 | 1.9
298.15 K | 205.6 | 114.5 | 73.4 | 47.4 | 32.09 | 19.44 | 10.57 | 6.02 | 3.35 | 1.77
303.15 K | 165.7 | 88.2 | 58 | 38.1 | 26.34 | 16.3 | 9.11 | 5.32 | 3.03 | 1.62
308.15 K | 133.9 | 68.8 | 45.9 | – | 21.74 | 13.74 | – | – | 2.73 | 1.5
313.15 K | 110.8 | 54.9 | 37.4 | 25.68 | 18.3 | 11.82 | 6.94 | 4.22 | 2.51 | 1.4
318.15 K | – | 44.6 | – | 21.55 | 15.57 | 10.24 | – | 3.82 | 2.3 | 1.31
